Assay results: article PMC6801448, “The Antioxidant and Antiproliferative Activities of 1,2,3-Triazolyl-L-Ascorbic Acid Derivatives” (International Journal of Molecular Sciences, 2019)
“Also recorded” adds a separate entry of the source.

Key:
[1] = system: HeLa (cervical carcinoma); assay: MTT proliferation assay, HeLa; assay type: cell-based; settings: Homo sapiens, 72 h
Outline: (§1)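 Read-out: A570 after 3 h MTT and DMSO solubilisation, converted to percentage of growth per NIH formulas; IC50 by regression analysis. Exposure: 72 h, 0.01–100 μM, 5000 cells/well plated 24 h earlier in DMEM/10% FBS.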

HFF-1 cells = assay: Seahorse XF Cell Mito Stress Test, HFF-1; assay type: cell-based, Human; settings: HFF-1, 24 h
Description: The Seahorse XF Cell Mito Stress Test was used for measurements of mitochondrial respiration by direct assessment of the oxygen consumption rate (OCR), of treated and untreated cells on the Seahorse XFe24 Analyzer, (Agilent, Santa Clara, CA, USA). Key parameters of the mitochondrial function were measured by direct assessment of the OCR, by use of the Mito Stress Test (Agilent, Agilent, Santa Clara, CA, USA). The Mito Stress Test uses modulators of respiration that target components of the electron transport chain in the mitochondria. The compounds added to the reaction were: oligomycin, mitochondrial oxidative phosphorylation uncoupler carbonyl cyanide-4-(trifluoromethoxy)phenylhydrazone (FCCP), and the mix of rotenone and antymicin A. These were directly injected to the cell growth medium containing cells treated with selected L-ASA derivatives to determine the production of ATP, respiration at maximal level, and the non-mitochondrial respiration. Measured parameters were used for calculation of the proton leakage, spare respiratory capacity, and basal respiration. The assay was performed according to the manufacturer’s instructions (SeaHorse—Mito Stress Test: Agilent, Santa Clara, CA, USA). Briefly, selected compound 4e was tested due to its selective antiproliferative effect on MCF-7 cells. MCF-7 cells were treated for 24 h with compound 4e at 3 different concentrations (at 12.72 µM, 25.44 µM and 50.88 µM) while the cells HFF-1 were treated for 24 h with compound 4e at concentrations 50 µM, 100 µM, and 200 µM. […] The experiment was performed with biological duplicates.

NOS2 = assay: Western blot of NOS2 in MCF-7 cells; assay type: cell-based, Human; settings: MCF-7, 6.72 µM, 48 h
Description: Protein lysates were prepared using RIPA buffer containing cocktail of protease and phosphatase inhibitors (Roche, Basel, Switzerland). Amounts of 50 μg of proteins were resolved on 12% SDS polyacrylamide gels using the Mini-protean cell (Bio-Rad, Hercules, CA, USA). The membranes were incubated with primary antibodies raised against hydroxy-HIF-1α (Pro564) (HIF-1α, 1:1000, rabbit mAb, Cell Signaling Technology, NL) and NOS2 (1:500, mouse mAb, SantaCruzBiotechnology, Dallas, TX, USA) at 4 °C overnight. A secondary antibody linked to anti-mouse (1:1000, Dako, Santa Clara, CA, USA) was used. The signal was visualized by the Western Lightening Chemiluminescence Reagent Plus Kit (Perkin Elmer, Massachusetts, MA, USA) on the ImageQuant LAS500 (GE Healthcare, Chicago, IL, USA), and as a loading control, α-tubulin (1:1000, mouse mAb, Sigma, Sigma Aldrich, Darmstadt, Germany) was used. The signal intensities of bands were normalized and compared in Quantity One software (Bio-Rad, Hercules, CA, USA). Differences in protein relative expression status obtained by western blot analysis were analyzed by two-tailed, paired t-tests (p < 0.05) in the Statistica software package (v.12.0).

[2] = system: HepG2 (hepatocellular carcinoma); assay: MTT proliferation assay, HepG2; assay type: cell-based; settings: Homo sapiens, 72 h
Outline: as §1

[3] = system: CFPAC-1 (ductal pancreatic adenocarcinoma); assay: MTT proliferation assay, CFPAC-1; assay type: cell-based; settings: Homo sapiens, 72 h
Outline: as §1

[4] = system: MCF-7 (breast adenocarcinoma); assay: MTT proliferation assay, MCF-7; assay type: cell-based, Human; settings: for IC50: Homo sapiens, MCF7, 72 h, MTT
Outline: as §1

[5] = system: tested cell lines (A549, CFPAC-1, HCT-116, HeLa, HepG2, MCF-7, SW620, WI-38, HFF-1); assay: MTT proliferation assay, whole tested cell panel; assay type: cell-based, Human; settings: 0.01 µM to 100 µM, 72 h
Description: The C-6 substituted 1,2,3-triazole derivatives of L-ASA within the C5-OH group ([…], 4i, 4k−4t, and 4v) and with the C4=C5 double bond (7c−7g and 7i−7q) were evaluated against seven malignant tumor cell lines: lung adenocarcinoma (A549), ductal pancreatic adenocarcinoma (CFPAC-1), colorectal carcinoma (HCT-116), cervical carcinoma (HeLa), hepatocellular carcinoma (HepG2), breast adenocarcinoma (MCF-7), colorectal adenocarcinoma, and metastatic (SW620); as well as normal cell lines: lung fibroblasts (WI-38) and foreskin fibroblasts (HFF-1) (Table 3, Table S1, Supplementary Information). L-ASA was used as a positive control, and carboxyamidotriazole, a known antiproliferative agent that inhibits tumor cell growth, invasion, and metastasis, and 5-fluorouracil (5-FU), were used as reference compounds.
Human tumor cell lines HeLa (cervical carcinoma), SW620 (colorectal adenocarcinoma, metastatic), A549 (lung adenocarcinoma), MCF−7 (breast adenocarcinoma), CFPAC-1 (pancreatic adenocarcinoma, metastatic), HCT-116 (colorectal carcinoma), and HepG2 (hepatocellular carcinoma), and normal cell lines HFF-1 (foreskin fibroblasts) and WI-38 (immortalized human lung fibroblast), were from the US American Type Culture Collection (ATCC, Manassas, VA, USA). Cells were cultured in a liquid nutrient medium (Dulbecco’s Modified Eagle Medium, LONZA, Basel, Switzerland) supplemented with 10% fetal bovine serum (FBS, Gibco, Grand Island, NY, USA), 2 mM L-glutamine (GIBCO, Grand Island, NY, USA), 100 μg/mL penicillin, and 100 μg/mL streptomycin (LONZA, Basel, Switzerland), in an incubator (NÜVE, Ankara, Turkey), at a humid atmosphere with 5% CO2 at 37 °C. Trypsin/EDTA Solution (Lonza, Basel, Switzerland), was used for cell passaging and cell detachment.
Adherent cells were seeded on 96 well microtiter plates (Falcon, New York, NY, USA) at a seeding density of 5000 cells per well, added in 150 μL of cell suspension in a nutrient medium. 24 h after seeding, cells were treated with compound 4b–4g, 4i, 4k–4t, 4v, 7c–7g, and 7i–7q dilutions in the range of 0.01 μM to 100 μM. L-ascoric acid (Sigma Aldrich, Darmstadt, Germany) and Carboxyamidotriazole (Sigma Aldrich, Darmstadt, Germany) were used as control compounds. Incubation of the cells with the compounds were performed for 72 h in a 5% CO2, in humid atmosphere at 37 °C. After incubation, nutrient medium was removed and 40 μL of the MTT reagent ([…]-2,5-diphenyltetrazole bromide (Invitrogen, Carlsbad, CA, USA) was added to each well. 3 h after incubation, 160 μL of DMSO (VWR CHEMICALS, Radnor, PA, USA) were added to each well to dissolve the crystals of purple formazane. The absorbance was measured at 570 nm (TECAN SUNRISE Microtiter plate reader (Männedorf, Switzerland). The experimentally measured optical densities (OD) were converted to the PG (percentage of growth), using the formulas according to the protocol assumed by NIH (National Institute of Health). The IC50 values (concentration causing 50% cell growth inhibition) for each compound were calculated by regression analysis of the survival count curve of the concentrations of the tested compounds. The results were processed in Excel 2010 (Microsoft, Redmond, WA, USA).

With `O=C1O[C@H]([C@@H](O)Cn2cc(-c3ccc(Br)cc3)nn2)C(O)=C1O` [Compound 4e, 6-[4-(4-bromophenyl)-1,2,3-triazol-1-yl]-6-deoxy-L-ascorbic acid] the IC50 [1] was greater than 100 µM, the “basal cell respiration and ATP production” value (HFF-1 cells) was “did not affect the basal cell respiration or ATP production; also recorded: did not affect the basal cell respiration and ATP production” and the “cellular metabolism and mitochondrial activity” value (HFF-1 cells; 100 µM) was “slightly positive effect”. The NOS2 expression (NOS2) was “decreased expression; also recorded: somewhat decreased”, the IC50 [2] was greater than 100 µM and the IC50 [3] was greater than 100 µM. The IC50 [4] was 6.72 µM, the “selectivity index, SI” value ([4]; WI-38 versus MCF-7) was 11 and the melting point was 159 to 160 °C.

In the case of `O=C1O[C@H]([C@@H](O)CO)C(O)=C1O` [L-ASA, L-ascorbic acid], the IC50 [1] is reported as greater than 100 µM, the “decrease of basal cell respiration and ATP production, switch towards non-mitochondrial respiration” value (HFF-1 cells; higher concentrations) is reported as “this effect was not observed” and the IC50 [2] is reported as greater than 100 µM. For the same molecule, the IC50 [3] was greater than 100 µM, the IC50 [4] was greater than 100 µM and the “antiproliferative / cytotoxic effect on the tested cell lines (in words)” value [5] was “no effects on the cell growth”.
